The values below come from US20080293699A1, “Inhibitors of thapsigargin-induced cell death” (priority 2007, published 2008).

Assay [1] relates to SW1 melanoma cell. As to the kind of experiment: Thapsigargin-induced death of SW1 cells, ATP content assay. It counts as cell-based, human. How it is done:
(§1) In addition to CSM14.1 cells, when tested at 25 μM, Compound 5962123 protected by >50% against thapsigargin-induced death of several tumor cell lines (HeLa human cervical cancer, SW1 melanoma cell, PPC1, human prostate cancer), mouse neural stem cell C17.2 (both differentiated [neuronal phenotype] and non-differentiated [stem cell phenotype]) as determined by ATP content assay, and primary rat cortical neurons as determined by microscopy assay measuring the percentage of NeuN-immunopositive cells with either normal or apoptotic nuclear morphology (Hoechst dye staining).
(§2) For PC12, cells were stimulated with 20 ng/ml NGF for five days; for C17.2, cells were stimulated with serum reduction, and 1% N2 incubation for three days; for CSM14.1, cells were cultured at 39° C. for 5-7 days.

In assay [2] the test system is protein phosphatase 2B (Calcineurin). As to the kind of experiment: In vitro phosphatase assay with immunoprecipitated ASK1 (ser 967 site) as substrate. In kind it is biochemical. The settings on record: 100 μM.
Assay [3] deals with CSM14.1 cells. Nature of the assay: Annexin V staining viability assay (flow cytometry), thapsigargin-treated undifferentiated CSM14.1 cells. In kind it is cell-based, rat. The settings on record: hit compounds 25 μM, TG 15 μM. The procedure:
Undifferentiated CSM14.1 cells were cultured as for FIG. 16. The next day, DMSO (a, b) (1% final volume), 100 μM Salubrinal (c, d) or 25 μM of hit compounds (1% final DMSO) was added. After two hrs, 15 μM TG was added to all wells except a and c. The plates were returned to culture for 24 hrs, then cells were recovered by trypsinization, transferred to 1.5 ml microcentrifuge tubes, and resuspended in 0.5 mL of Annexin V-binding solution. The percentage of annexin V-negative cells was determined by flow-cytometry (y-axis). Treatments and compounds were the same as in FIG. 16.
One method we have employed, for example, for confirming protection against TG-induced killing uses fluorochrome-conjugated annexin V staining with flow-cytometry analysis to evaluate the percentage cell viability by a method that is independent of the ATP content assay.
FIGS. 16 and 17 show the results of a secondary assay for evaluating the cytoprotective activity of the compounds. In FIG. 16, undifferentiated CSM14.1 cells were cultured at 10^4 cells per well of 24-well plates (Greiner Bio One). The next day, DMSO (a, b) (1% final volume), 100 μM Salubrinal (c, d) or 25 μM of hit compounds (1% final DMSO) was added. After two hrs, 15 μM TG was added to all wells except a and c. A conventional ATP assay was performed to measure survival rate. In FIG. 17 undifferentiated CSM14.1 cells were cultured at 10^4 cells per well of 24-well plates (Greiner Bio One). The next day, DMSO (a, b) (1% final volume), 100 μM Salubrinal (c, d) or 25 μM of hit compounds (1% final DMSO) was added. After two hrs, 15 μM TG was added to all wells except a and c. […] The percentage of annexin V-negative cells was determined by flow-cytometry (y-axis), using a FACSort instrument (Beckton-Dickinson). […]
7) The percentage of annexin V-negative cells was determined by flow-cytometry (y-axis), using a FACSort analysis facility in Burnham (Beckton & Dickinson)
(In general: Flow cytometry measures light scatter and fluorescence of single cells or particles in a stream.)

In assay [4] the test system is mouse neural stem cell C17.2. As to the kind of experiment: Thapsigargin-induced death of C17.2 cells (undifferentiated and differentiated), ATP content assay. It counts as cell-based. How it is done:
as §1, §2

Assay [5] relates to primary rat cortical neurons. Nature of the assay: Thapsigargin-induced death of primary cortical neurons, microscopy assay (NeuN, Hoechst). In kind it is cell-based. The procedure:
as §1
Description of secondary screens. The secondary screens used to characterize compound 5962123 (many of which were used to characterize all 11 benzodiazepines) are outlined above. Thirty-one secondary screens have been used to date to characterize compound 5962123. […] Finally, compound 2878746 inhibits thapsigargin-induced cell death of rat primary cortical neurons (identified by staining with NeuN), as determined by counting apoptotic […] (NeuN)-positive cells stained with the DNA-binding fluorochrome Hoechst dye to identify cells with condensed nuclear morphology indicative of apoptosis and evidence of neurite retraction.

Take `CCN(CC)c1ccc(C2Nc3ccccc3NC3=C2C(=O)CC(c2ccccc2)C3)cc1` (centres unmarked) [Compound 5962123, 6-(4-diethylaminophenyl)-9-phenyl-5,6,8,9,10,11-hexahydrobenzo[c][1,5]benzodiazepin-7-one]: the “Protection against thapsigargin-induced death, SW1” value in assay [1] (25 μM, ATP content assay) was greater than 50%. Besides, the “Cytoprotective activity in thapsigargin-treated SW1” value in assay [1] (ATP content assay) was “demonstrated”. Further, in assay [1] (thapsigargin 15 μM, ATP content, compound ≦25 μM), the “Cytoprotective activity, SW1 (Result)” value is listed as “+ (+indicates >50% rescue of cell viability relative to untreated cells not exposed to thapsigargin at compound concentration of ≦25 μM)”. The “Activity of protein phosphatase 2B (Calcineurin)” value in assay [2] is “did not affect”. Moreover, in assay [3], the “Protection against TG-induced cell death measured by annexin V staining” value is recorded as “confirmed”. Besides, the “Activity in differentiated C17.2 cells treated with thapsigargin” value in assay [4] (25 μM, ATP content assay) is recorded as “confirmed”. In assay [4] (25 μM, both differentiated and non-differentiated, ATP content assay), the “Protection against thapsigargin-induced death, C17.2” value is given as greater than 50%. The “Cytoprotective activity, C17.2 diff (Result)” value in assay [4] (differentiated, thapsigargin 10 μM, ATP content, compound ≦25 μM) was “+ (+indicates >50% rescue of cell viability relative to untreated cells not exposed to thapsigargin at compound concentration of ≦25 μM)”. The “Cytoprotective activity, C17.2 (Result)” value in assay [4] (undifferentiated, thapsigargin 10 μM, ATP content, compound ≦25 μM) is recorded as “+ (+indicates >50% rescue of cell viability relative to untreated cells not exposed to thapsigargin at compound concentration of ≦25 μM)”. Besides, in assay [5] (25 μM, microscopy, NeuN-immunopositive cells, Hoechst nuclear morphology), the “Protection against thapsigargin-induced death, primary rat cortical neurons” value is recorded as greater than 50%. Besides, the “Inhibition of thapsigargin-induced cell death of rat primary cortical neurons” value in assay [5] (counting apoptotic NeuN-positive cells, Hoechst dye) is reported as “inhibits”.
